From patent US9271978B2 (Zenith Epigenetics Corp., priority 2012, dated 2016)

How the values were obtained:
hIL-6 mRNA = experiment: Inhibition of hIL-6 mRNA transcription in U937 cells; format: cell-based, human; parameters: key: Active: Compounds with an IC50 value less than 30 μM were deemed to be active.; Not Active: Compounds with an IC50 value less than 30 μM were deemed to be active; conditions: LPS stimulation, active = IC50 <30 μM
In short: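 U937 cells differentiated 3 days with 60 ng/mL PMA, pretreated 1 h with compound, then stimulated with 1 ug/mL E. coli LPS for 3 h at 37° C. hIL-6 mRNA quantified by one-step qRT-PCR, Ct normalized to internal control, expressed as fold induction relative to control.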

[1] = molecular target: T1, Brd4 bromodomain 1 (BRD4(1)) (Homo sapiens, UniProt O60885); experiment: Inhibition of tetra-acetylated histone H4 binding to Brd4 bromodomain 1 (TR-FRET); parameters: key: Active: Compounds with an IC50 value less than 30 μM were deemed to be active.; Not Active: Compounds with an IC50 value less than 30 μM were deemed to be active; conditions: tetra-acetylated histone H4 peptide, active = IC50 <30 μM
T1 construct: Illustrative results with the first bromodomain of Brd4; made in house; host or cells: E. coli BL21 (DE3)
In short: (§1)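 N-terminally His-tagged bromodomains (200 nM), expressed in E. coli, were incubated with biotinylated tetra-acetylated histone H4 peptide (25-50 nM), Eu-cryptate streptavidin and XL665 anti-His antibody in HEPES pH 7.4 buffer with KF, 0.2% DMSO, 2 h at room temperature. Inhibition read as decreased 665/620 nm TR-FRET; IC50 from dose-response curves.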

[2] = test system: human AML MV-4-11 (CRL-9591) cells; experiment: Inhibition of cell proliferation in MV4-11 cells; format: cell-based; parameters: key: Active: Compounds with an IC50 value less than 30 μM were deemed to be active.; Not Active: Compounds with an IC50 value less than 30 μM were deemed to be active; conditions: human AML MV-4-11 cells, 72 h; active = IC50 <30 μM
In short: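 Exponentially growing MV-4-11 cells (5×10^4/well) were treated immediately with two-fold dilutions of compound from 30 μM to 0.2 μM, in triplicate, for 72 h at 37° C, 5% CO2. Viability was measured by MTS absorbance at 490 nm after 3–4 h. Proliferation relative to DMSO after blank correction gave IC50.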

ApoA-I mRNA = experiment: Up-regulation of hApoA-1 mRNA transcription in Huh7 cells; format: cell-based, human; parameters: key: Active: Compounds with an EC170 value less than 30 μM were deemed to be active; conditions: 48 h treatment, ApoA-I mRNA by real-time PCR, Active = EC170 less than 30 μM
Protocol: In this example, ApoA-I mRNA in tissue culture cells was quantitated to measure the transcriptional up-regulation of ApoA-I when treated with a compound of the present disclosure.
Huh7 cells (2.5×10^5 per well) were plated in a 96-well plate using 100 μL DMEM per well, (Gibco DMEM supplemented with penicillin/streptomycin and 10% FBS), 24 h before the addition of the compound of interest. After 48 h treatment, the spent media was removed from the Huh-7 cells and placed on ice (for immediate use) or at −80° C. (for future use) with the “LDH cytotoxicity assay Kit II” from Abcam. The cells remaining in the plate were rinsed with 100 μL PBS.
Then 85 μL of cell lysis solution was added to each well and incubated for 5-10 min at room temperature, to allow for complete cell lysis and detachment. mRNA was then prepared using the “mRNA Catcher PLUS plate” from Life Technologies, according to the protocol supplied. After the last wash, as much wash buffer as possible was aspirated without allowing the wells to dry. Elution Buffer (E3, 80 μL) was then added to each well. mRNA was then eluted by incubating the mRNA Catcher PLUS plate with Elution Buffer for 5 min at 68° C., and then 1 min at 4° C. Catcher plates with mRNA eluted were kept on ice for use or stored at −80° C.
The eluted mRNA isolated was then used in a one-step real-time PCR reaction, using components of the Ultra Sense Kit together with Life Technologies primer-probe mixes. Real-time PCR data was analyzed, using the Ct values, to determine the fold induction of each unknown sample, relative to the control (that is, relative to the control for each independent DMSO concentration).
Compounds with an EC170 value less than 30 μM were deemed to be active.

[3] = molecular target: T2, second bromodomain of Brd2 (BRD2(2)) (Homo sapiens, UniProt P25440); experiment: Inhibition of tetra-acetylated histone H4 binding to Brd2 bromodomain 2 (TR-FRET); parameters: key: Active: Compounds with an IC50 value less than 30 μM were deemed to be active.; Not Active: Compounds with an IC50 value less than 30 μM were deemed to be active; conditions: tetra-acetylated histone H4 peptide, active = IC50 <30 μM
T2 construct: made in house; host or cells: E. coli BL21 (DE3)
T2 sequence (P25440 344-453 limits assumed): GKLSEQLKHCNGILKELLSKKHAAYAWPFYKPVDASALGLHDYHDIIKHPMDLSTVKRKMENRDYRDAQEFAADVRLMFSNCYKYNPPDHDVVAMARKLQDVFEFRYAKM
In short: as §1

c-myc = experiment: Inhibition of c-myc expression in MV4-11 cells (mRNA, real-time PCR); format: cell-based; parameters: key: Active: Compounds with an IC50 value less than 30 μM were deemed to be active.; Not Active: Compounds with an IC50 value less than 30 μM were deemed to be active; conditions: Human AML MV4-11 cells, 3 h incubation
In short: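 MV4-11 cells (2.5×10^4) treated with compound or 0.1% DMSO for 3 h at 37 °C. c-myc mRNA measured by RT real-time PCR duplexed with cyclophilin. IC50 from dose–response curve.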

| SMILES | IL-6 activity (IC50 <30 μM) (hIL-6 mRNA) | FRET activity (IC50 <30 μM) BRD4(1) [1] | Cell Proliferation activity (IC50 <30 μM) [2] | ApoA-1 activity (EC170 <30 μM) (ApoA-I mRNA) | FRET activity (IC50 <30 μM) BRD2(2) [3] | c-myc activity (IC50 <30 μM) (c-myc) |
| --- | --- | --- | --- | --- | --- | --- |
| Cc1noc(C)c1-c1cn(Cc2ccccc2)c(=O)cn1 [Example 6, 1-Benzyl-5-(3,5-dimethylisoxazol-4-yl)pyrazin-2(1H)-one] | Active | Active | Active | Active | Active |  |
| Cc1noc(C)c1-c1cc(Cl)c(=O)n(Cc2ccc(F)cc2)c1 [Example 181, 3-chloro-5-(3,5-dimethylisoxazol-4-yl)-1-(4-fluorobenzyl)pyridin-2(1H)-one] | Not Active | Active | Not Active | Active |  | Active |
| Cc1noc(C)c1-c1cc(-c2cccc(C(N)=O)c2)c(=O)n(Cc2ccccc2)c1 [Example 185, 3-(1-benzyl-5-(3,5-dimethylisoxazol-4-yl)-2-oxo-1,2-dihydropyridin-3-yl)benzamide] | Not Active | Active | Active | Active |  | Active |
| Cc1noc(C)c1-c1cc(N)c(=O)n(Cc2ccc(Cl)cc2)n1 [Example 233, 4-amino-2-(4-chlorobenzyl)-6-(3,5-dimethylisoxazol-4-yl)pyridazin-3(2H)-one] | Active | Active | Active | Active |  | Active |
| Cc1noc(C)c1-c1cc(C(N)=O)c(=O)n(Cc2ccccc2)c1 [Example 230, 1-Benzyl-5-(3,5-dimethylisoxazol-4-yl)-2-oxo-1,2-dihydropyridine-3-carboxamide] | Active | Active | Active | Active |  | Active |
| Cc1noc(C)c1-c1cc(N)c(=O)n(Cc2ccc(F)c(F)c2)c1 [Example 211, 3-amino-1-(3,4-difluorobenzyl)-5-(3,5-dimethylisoxazol-4-yl)pyridin-2(1H)-one] | Active | Active | Active | Active |  | Active |
| CN1CCN(c2ccc(=O)n(Cc3ccccc3)n2)CC1=O [Example 179, 2-benzyl-6-(4-methyl-3-oxopiperazin-1-yl)pyridazin-3(2H)-one] | Active | Active | Active | Active |  | Active |
| Cc1noc(C)c1-c1cc(N)c(=O)n(Cc2ccc(Cl)cc2F)c1 [Example 206, 3-amino-1-(4-chloro-2-fluorobenzyl)-5-(3,5-dimethylisoxazol-4-yl)pyridin-2(1H)-one] | Active | Active | Active | Active |  | Active |
| Cc1noc(C)c1-c1cc(Nc2ccn(C)n2)c(=O)n(Cc2ccccc2)c1 [Example 184, 1-benzyl-5-(3,5-dimethylisoxazol-4-yl)-3-((1-methyl-1H-pyrazol-3-yl)amino)pyridin-2(1H)-one] |  | Active | Active | Active |  | Active |
| Cc1noc(C)c1-c1cc(N2CCOCC2)c(=O)n(Cc2ccccc2)c1 [Example 190, 1-benzyl-5-(3,5-dimethylisoxazol-4-yl)-3-morpholinopyridin-2(1H)-one] | Not Active | Active | Active | Active |  | Active |
| Cc1noc(C)c1-c1cc(Nc2ccccn2)c(=O)n(Cc2ccccc2)c1 [Example 193, 1-benzyl-5-(3,5-dimethylisoxazol-4-yl)-3-(pyridin-2-ylamino)pyridin-2(1H)-one] | Active | Not Active | Active | Active |  | Not Active |
| Cc1noc(C)c1-c1cc(N)c(=O)n(Cc2ccccc2Cl)c1 [Example 227, 3-amino-1-(2-chlorobenzyl)-5-(3,5-dimethylisoxazol-4-yl)pyridin-2(1H)-one] | Active | Active | Active | Active |  | Active |
| Cc1noc(C)c1-c1cc(N2CCC2)c(=O)n(Cc2ccccc2)c1 [Example 183, 3-(Azetidin-1-yl)-1-benzyl-5-(3,5-dimethylisoxazol-4-yl)pyridin-2(1H)-one] |  | Active | Active | Active |  | Active |
| COc1cc(-c2ccc(=O)n(Cc3ccc(C#N)cc3)n2)cc(OC)c1OC [Example 16, 4-((6-Oxo-3-(3,4,5-trimethoxyphenyl)pyridazin-1(6H)-yl)methyl)benzonitrile] |  | Active |  | Active | Active | Not Active |
| Cc1noc(C)c1-c1ccc(=O)n(Cc2ccc(C(F)(F)F)cc2)c1 [Example 7, 5-(3,5-Dimethylisoxazol-4-yl)-1-(4-(trifluoromethyl)benzyl)pyridin-2(1H)-one] | Active | Active | Active | Active | Active |  |
| Cc1noc(C)c1-c1cc(Nc2ccccc2)c(=O)n(Cc2ccccc2)c1 [Example 72, 1-Benzyl-5-(3,5-dimethylisoxazol-4-yl)-3-(phenylamino)pyridin-2(1H)-one] | Active | Active |  | Active | Active | Active |
| Cc1noc(C)c1-c1ccc(=O)n([C@H](C)c2ccc(F)cc2)c1 (single isomer, unassigned) [Example 111] | Active | Active |  | Active | Active |  |
